Test results taken from article PMC8248988, “A signal capture and proofreading mechanism for the KDEL-receptor explains selectivity and dynamic range in ER retrieval” (eLife, 2021).

Legend:
Type in all cases: cell-based
[1] = biological target: T1, human KDELR1 E117Q (Homo sapiens, UniProt P24390, E117Q); assay: ER retrieval assay, KDELR1 E117Q-GFP; settings: COS-7 cells
T1 construct: expressed in transfected cells; host or cells: COS-7
Source text: (§1) To create KDELR1-GFP and KDELR2-GFP, the reading frames for Homo sapiens KDELR1 (Uniprot: P24390) and KDELR2 (Uniprot: P33947) were cloned into the pEF5/FRT low level mammalian expression vector with a C-terminal 20 amino acid linker made up of 5 copies of Gly-Ser-Ser-Ser followed by GFP. Specific point mutations were introduced using the Quickchange protocol (Stratagene) and are described in the key resources table and figures. To create the mScarlet-KDEL^sec ligand construct, mScarlet with an N-terminal hGH signal peptide and the 16 C-terminal residues of human BiP at its C-terminus, containing the KDEL signal, was cloned into the pcDNA3.1 vector. […] The Golgi marker protein TGN46 was detected by antibody (sheep anti-TGN46 AHP500G; AbD Serotec) and an Alexa 647 conjugated secondary anti-sheep secondary (A-21448, Invitrogen). In Figure 1d and e, endogenous KDELR was detected by antibody (mouse anti-KDELR ADI-VAA-PT048; Enzo Life Sciences) and Alexa 488 conjugated anti-mouse secondary antibody (A-21202, Invitrogen). For retrieval assays in other figures, KDELR-GFP fusion proteins were directly detected by fluorescence. The mScarlet-xDEL fusion proteins were directly detected by fluorescence. […] The fraction of KDEL receptor in the Golgi apparatus was calculated by dividing the Golgi signal by the total cell signal. […]

[2] = biological target: T2, human KDELR1 D50N/N54R (Homo sapiens, UniProt P24390, D50N/N54R); assay: ER retrieval assay, KDELR1 D50N/N54R-GFP; settings: COS-7 cells
T2 construct: expressed in transfected cells; host or cells: COS-7
Source text: as §1

[3] = biological target: T3, human KDELR1 D50N/N54K (Homo sapiens, UniProt P24390, D50N/N54K); assay: ER retrieval assay, KDELR1 D50N/N54K-GFP; settings: COS-7 cells
T3 construct: expressed in transfected cells; host or cells: COS-7
Source text: as §1

[4] = biological target: T4, human KDELR1 D50N/E117Q (Homo sapiens, UniProt P24390, D50N/E117Q); assay: ER retrieval assay, KDELR1 D50N/E117Q-GFP; settings: COS-7 cells
T4 construct: expressed in transfected cells; host or cells: COS-7
Source text: as §1

[5] = biological target: T5, human KDELR1 (Homo sapiens, UniProt P24390); assay: ER retrieval assay, WT KDELR1-GFP; settings: COS-7 cells, WT human KDEL receptor-GFP with mScarlet ligand
T5 construct: expressed in transfected cells; host or cells: COS-7
Source text: as §1

[6] = biological target: T6, human KDELR1 N54K/E117Q (Homo sapiens, UniProt P24390, E117Q/N54K); assay: ER retrieval assay, KDELR1 N54K/E117Q-GFP; settings: COS-7 cells
T6 construct: expressed in transfected cells; host or cells: COS-7
Source text: as §1

T6 sequence (P24390 whole entry N54K/E117Q): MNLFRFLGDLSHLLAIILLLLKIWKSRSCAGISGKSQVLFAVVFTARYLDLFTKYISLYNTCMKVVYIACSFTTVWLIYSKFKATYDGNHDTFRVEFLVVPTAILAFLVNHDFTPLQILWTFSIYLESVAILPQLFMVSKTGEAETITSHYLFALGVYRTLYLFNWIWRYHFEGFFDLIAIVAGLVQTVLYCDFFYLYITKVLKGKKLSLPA
T1 sequence (P24390 whole entry E117Q): as the sequence (P24390 whole entry N54K/E117Q) above, with K54N counted along it
T4 sequence (P24390 whole entry D50N/E117Q): as the sequence (P24390 whole entry N54K/E117Q) above, with D50N, K54N counted along it
T3 sequence (P24390 whole entry D50N/N54K): as the sequence (P24390 whole entry N54K/E117Q) above, with D50N, Q117E counted along it
T5 sequence (P24390 whole entry): as the sequence (P24390 whole entry N54K/E117Q) above, with K54N, Q117E counted along it
T2 sequence (P24390 whole entry D50N/N54R): as the sequence (P24390 whole entry N54K/E117Q) above, with D50N, K54R, Q117E counted along it

Substance: ADEL [pcDNA3.1 hGHss-mScarlet-H. sapiens BiP639-654K651A (ADEL^SEC), secreted mScarlet fusion with human BiP C-terminus, ADEL signal]
- ligand-induced receptor retrieval to the ER (in words) [1]: move to the ER
- ligand-induced receptor retrieval to the ER (in words) [2]: gave a response
- ligand-induced receptor retrieval to the ER (in words) [3]: gave a response
- ligand-induced receptor retrieval to the ER (in words) [4]: switched specificity towards ADEL and DDEL
- ligand-induced receptor retrieval to the ER (in words) [5]: does not activate
- ligand-induced receptor retrieval to the ER (in words) [6]: switched specificity towards ADEL and DDEL
